# Source: paper PMC10747602, “Dose Response, Dosimetric, and Metabolic Evaluations of Replacement PFAS Perfluoro-(2,5,8-trimethyl-3,6,9-trioxadodecanoic) Acid (HFPO-TeA)” (Toxics, 2023)
# Where “and” joins values, the source holds several entries; their conditions need not be identical. Equal values may be shown once. Read-outs that look alike come from different tables or passages of the source.
# Experiments:
# [1] = set-up: method as in PMID 18661093; conditions: male rats, 5 mg/kg/day orally for 28 days; cited from earlier work
# [2] = male mice, 2.5 mg/kg/day orally for 28 days; cited from earlier work
# [3] = set-up: method as in PMID 21948869, PMID 36309054; conditions: cited from earlier work
# [4] = Hepatocyte metabolic stability (clearance) assay, human hepatocytes; conditions: human, hepatocytes, 1000 nM
# Procedure: (§1) Information on the chemicals and materials used in the hepatocyte metabolic work can be found in Supplementary Text S9 and Table S3. In vitro evaluations of hepatocyte metabolic stability were performed in human and rat hepatocytes, as previously described. Briefly, pooled, cryopreserved hepatocyte suspensions were thawed, assessed for viability, and then diluted in William’s medium E containing dexamethasone and cell maintenance cocktail B to achieve a cell density of 50,000 cells/100 µL. The assay was started by adding hepatocyte suspensions to wells of 96-well polypropylene plates containing an equal volume of media with 2 µM of analyte (final assay concentration: 1 µM). Plates were placed in a 37 °C cell culture incubator (5% CO2) on a shaker set to 200 rpm. Time points assessed were T0, T15, T30, T60, T120, and T240 min. At each time point, the plates were removed from the shaker and the incubates were crashed with an equal volume of ice-cold ACN containing 1.2% FA and 16 ng/mL of ^13C3 -HFPO-DA. After chilling and centrifugation at 4122× g, the supernatants were transferred to new collection plates and stored at −70 °C until analysis for the parent compound on the Waters instrumentation described below. Immediately prior to analysis, samples were thawed, vortexed, and centrifuged at 4200× g, and then diluted 1:4 in 95:5 H2O/ACN with 2.5 mM of ammonium acetate. Negative controls, including no cell controls and metabolically inactivated hepatocytes, were run concurrently to assess the chemical stability over the time course.
# (§2) Intrinsic clearance (Clint; hepatic clearance) calculations are detailed in Supplementary Text S9 [57].
# (§3) Targeted, quantitative analysis of in vitro hepatocyte metabolic stability and plasma protein binding assay samples was conducted on a Waters Xevo-TQS micro mass spectrometer (Waters, Milford, MA, USA) ultra-high-performance liquid chromatography tandem mass spectrometry system (UPLC-MS/MS), modified with a PFAS analysis kit. Samples were analyzed in negative ion mode with UniSpray ionization. A CORTECS T3 column (Waters CORTECS, 3 × 100 mm, particle size 2.7 µm) was used for chromatographic separation with a flow rate of 0.6 mL/min and a temperature of 55 °C. Gradient elution was used with eluent A (95:5 H2O/ACN) and eluent B (95:5 ACN/H2O) with 2.5 mM of ammonium acetate. The gradient is available in Table S11. Additional details for MS parameters are found in Table S12 and monitored transitions are found in Table S13.
# (§4) Table S2: Data processing parameters used with Sciex MarkerView 1.3.1.
# (§5) Support ing Text S9: Hepatocyte Metabolic Stability Assay Materials, Chemicals, and Calculations
# (§6) Pooled human and rat cryopreserved primary hepatocyte suspensions were both obtained from
# (§7) BioIVT, a US Food and Drug Administration-licensed and inspected donor center, and produced using
# (§8) non-transplantable tissue.
# (§9) William’s E media, dexamet hasone (98% pure), and cell maintenance cocktail B were obtained from
# (§10) Thermo Fisher Scientific (Waltham, MA, USA), the OptiThaw hepatocyte kit from Sekisui/Xenotech
# (§11) (Tokyo, Japan), and the trypan blue s (Sekisui/ Xenotech, Tokyo, Japan) and the trypan blue solution from […]
# [5] = Hepatocyte metabolic stability (clearance) assay, rat hepatocytes; conditions: both, Sprague Dawley, rat, hepatocytes
# Procedure: as §1, §2, §3, §4, §5, §6, §7, §8, §9, §10, §11
# human hepatocytes = test: Hepatocyte metabolic stability (clearance) assay, human hepatocytes; conditions: 1000 nM; for Negative Control Data, No cells (NC), Ln Concentration / Negative Control Data, Heat Treated (HT), Ln Concentration / Ln Concentration: Rep 1-3
# Procedure: as §1, §2, §3, §4, §5, §6, §7, §8, §9, §10, §11
# rat hepatocytes = test: Hepatocyte metabolic stability (clearance) assay, rat hepatocytes; conditions: 1000 nM
# Procedure: as §1, §2, §3, §4, §5, §6, §7, §8, §9, §10, §11
# [6] = HT-Background Half Life, heat treated human hepatocytes
# [7] = Half Life, human hepatocytes, time in min
smiles,measurement,setting,value
"O=C(O)C(F)(F)C(F)(F)C(F)(F)C(F)(F)C(F)(F)C(F)(F)C(F)(F)F [PFOA, perfluorooctanoic acid]",Kp,[1],5.88
same,Kp,[2],1.54
same,underestimation of Css values by previous IVIVE evaluations,[3],> 100 ×
"O=S(=O)(O)C(F)(F)C(F)(F)C(F)(F)C(F)(F)C(F)(F)C(F)(F)C(F)(F)C(F)(F)F [PFOS, perfluorooctane sulfonic acid]",underestimation of Css values by previous IVIVE evaluations,[3],> 100 ×
"CC(C)NCC(O)COc1cccc2ccccc12 (stereo not shown) [Propranolol, reference compound]",half-life at 1 µM,[4]; [6],738 min
same,half-life at 1 µM,[4]; [7],97.7 min
same,half-life at 1000 nM,[5],15.7 min
"CCOc1ccc(NC(C)=O)cc1 [Phenactin, phenacetin, reference compound]",hepatocyte CLint at 1 µM,"[4]; Background-Subtracted Clint, human hepatocytes",8.8 µL/min/1e6 cells
same,hepatocyte CLint at 1 µM,"[4]; Clint, human hepatocytes, not background-subtracted",12.1 µL/min/1e6 cells
same,half-life at 1 µM,[4]; [6],426 min
same,half-life at 1 µM,[4]; [7],115 min
same,"Negative Control Data, No cells (NC), Ln Concentration",human hepatocytes; 15 min,3.8649 and 3.8943 and 3.8643
same,"Negative Control Data, No cells (NC), Ln Concentration",human hepatocytes; 240 min,3.9162 and 4.0144 and 3.9729
same,HT Background k,human hepatocytes; heat treated human hepatocytes,-0.0016
same,"Negative Control Data, Heat Treated (HT), Ln Concentration","human hepatocytes; human hepatocytes, 15 min",4.4085 and 4.9735 and 5.3748
same,"Negative Control Data, Heat Treated (HT), Ln Concentration","human hepatocytes; human hepatocytes, 240 min",4.6160 and 4.4891 and 4.5540
same,Ln Concentration,"human hepatocytes; human hepatocytes, time 0 min",3.7764 and 3.7975 and 3.7223
same,Ln Concentration,"human hepatocytes; human hepatocytes, time 15 min",3.8137 and 3.7544 and 3.6623
same,Ln Concentration,"human hepatocytes; human hepatocytes, time 30 min",3.5799 and 3.7106 and 3.6378
same,Ln Concentration,"human hepatocytes; human hepatocytes, time 60 min",3.3014 and 3.5121 and 3.4541
same,Linear Regression Best-Fit Slope (ln concentration vs time),"human hepatocytes; human hepatocytes, time in min",-0.006025
same,"Negative Control Data, Heat Treated (HT), 15 min","rat hepatocytes; heat treated rat hepatocytes, 15 min, Ln concentration, Rep 1-3",3.7605 and 3.8293 and 3.8230
same,"Negative Control Data, Heat Treated (HT), 240 min","rat hepatocytes; heat treated rat hepatocytes, 240 min, Ln concentration, Rep 1-3",3.8801 and 3.8626 and 3.3989
same,"Negative Control Data, No cells (NC), 15 min","rat hepatocytes; no cells, 15 min, Ln concentration, Rep 1-3",3.7121 and 3.7753 and 3.7677
same,"Negative Control Data, No cells (NC), 240 min","rat hepatocytes; no cells, 240 min, Ln concentration, Rep 1-3",3.8252 and 3.8743 and 4.0157
same,"Ln Concentration, 0 min","rat hepatocytes; suspended rat hepatocytes, time 0 min, Rep 1-3",3.7431 and 3.7883 and 3.8093
same,"Ln Concentration, 15 min","rat hepatocytes; suspended rat hepatocytes, time 15 min, Rep 1-3",3.7497 and 3.8776 and 3.8997
same,"Ln Concentration, 30 min","rat hepatocytes; suspended rat hepatocytes, time 30 min, Rep 1-3",3.5148 and 3.4871 and 3.5444
same,"Ln Concentration, 60 min","rat hepatocytes; suspended rat hepatocytes, time 60 min, Rep 1-3",3.0012 and 3.3979 and 3.4757
same,"Ln Concentration, 120 min","rat hepatocytes; suspended rat hepatocytes, time 120 min, Rep 1-3",2.7575 and 2.7517 and 2.9423
same,"Ln Concentration, 240 min","rat hepatocytes; suspended rat hepatocytes, time 240 min, Rep 1-3",2.0042 and 1.7029 and 2.0503
same,Linear Regression Best-Fit Slope (Ln concentration vs time),"rat hepatocytes; suspended rat hepatocytes, time in min",-0.008025
same,half-life at 1000 nM,[5],86.4 min
same,hepatocyte CLint at 1000 nM,[5],16.1 µL/min/1e6 cells
